# In PMC10454728, “A Comparative Study on the Lysosomal Cation Channel TMEM175 Using Automated Whole-Cell Patch-Clamp, Lysosomal Patch-Clamp, and Solid Supported Membrane-Based Electrophysiology: Functional Characterization and High-Throughput Screening Assay Development” (International Journal of Molecular Sciences, 2023):
# Experiments:
# TMEM175 [1] = biological target: T1, TMEM175 (Homo sapiens, UniProt Q9BSA9); assay: SSME H+ flux assay (pH jumps) on TMEM175 lysosomes (SURFE2R N1); assay type: biochemical; details: 10 mM 4-AP
# T1 sequence (Q9BSA9 1-504): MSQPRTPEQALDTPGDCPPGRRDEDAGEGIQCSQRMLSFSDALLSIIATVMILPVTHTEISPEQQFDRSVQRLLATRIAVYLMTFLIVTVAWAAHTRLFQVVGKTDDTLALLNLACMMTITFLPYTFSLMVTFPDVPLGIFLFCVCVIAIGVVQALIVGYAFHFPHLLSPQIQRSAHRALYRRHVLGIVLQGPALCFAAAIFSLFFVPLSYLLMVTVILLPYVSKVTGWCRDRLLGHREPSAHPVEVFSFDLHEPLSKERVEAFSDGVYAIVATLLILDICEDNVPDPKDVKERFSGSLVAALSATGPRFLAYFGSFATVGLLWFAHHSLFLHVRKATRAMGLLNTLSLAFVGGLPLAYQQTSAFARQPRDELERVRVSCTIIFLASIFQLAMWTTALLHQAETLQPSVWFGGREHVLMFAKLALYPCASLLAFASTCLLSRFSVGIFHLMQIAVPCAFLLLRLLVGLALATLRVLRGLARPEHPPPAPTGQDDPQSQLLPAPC
# Description: To further investigate the capability of TMEM175 to translocate protons using SSME, we performed H^+ concentration or pH jumps using the SURFE^2R N1. The non-activating solution was set to pH 7.6, defining both the lysosomal and cytosolic pH before the start of the experiment. By exchanging the non-activating for the activating solution, we acidified the cytosolic solution and stimulated H^+ influx through TMEM175 (Figure 5A).
# However, the application of pH jumps lead to significant artifact currents of positive magnitude, as observed with the control lysosomes (Figure 5C). These artifacts are a result of protons interacting with the lipid membranes and/or unknown H^+ leak pathways through the lysosomal membrane. To conclude pure TMEM175-related H^+ currents, we subtracted the artifact currents from the currents recorded with the TMEM175 sample. When plotting ΔpH against the artifact-corrected average TMEM175 net H^+ current, we obtain a close-to-linear correlation (Figure 5D).
# For comparison with the I/c curve reported for K^+ (Figure 3E), we calculated the difference in H^+ concentration across the lysosomal membrane Δc = cH^out − cH^in, which correlates linearly with the passive H^+ flux J = PH+Δc according to Fick’s law.
# We used H^+ concentration or pH jumps to measure H^+ flux through TMEM175. Non-activating solution was set to pH 7.6, while activating solution contained different pH values between pH 7.4 and pH 4.6; (B) Representative current traces induced by pH jumps on lysosomes overexpressing TMEM175. All current traces were recorded with the same sensor, starting from the lowest ΔpH. […] The remaining current mostly reflects the background (artifact) current after full block of TMEM175; (C) Representative current traces from the same experiment on control lysosomes. […] This represents the artifact current also underlying the currents recorded with the TMEM175 sample; (D) SEM and average, artifact-corrected, normalized peak currents from N = 4 sensors, reflecting the H^+ flux through TMEM175, solely driven by the pH gradient. […]
# TMEM175 [2] = biological target: T1, TMEM175; assay: SSME cation selectivity assay with 4-AP block (SURFE2R 96SE); assay type: biochemical; details: 10 mM 4-AP
# Description: We performed the same experiment on lysosomes purified from HEK293 cells overexpressing TMEM175 (TMEM175 sample, Figure 2B) and control lysosomes that were purified from HEK293 cells expressing endogenous TMEM175 (control sample, Figure 2C), using a low sample dilution to enhance the signal-to-noise.
# We also performed a similar series of experiments on the SURFE^2R 96SE, essentially reproducing the results found with the SURFE^2R N1 (Figure 2E). […] Supplementary Figure S2 contains representative current traces and additional experimental details.
# We applied a solution exchange from 50 mM NMDG-Cl to 50 mM of a different Cl salt at pH 7.6; (B) Representative current traces recorded with the TMEM175 sample. All traces are recorded from the same sensor; (C) Representative current traces recorded with the control sample. Currents reflect background signals (artifacts) resulting from ion–membrane interactions; (D) Average peak currents and SD for N = 5 sensors recorded with the TMEM175 and control samples; (E) Average peak currents and SEM for N = 16 sensors, recorded with the TMEM175 (left) and control (right) sample. […]
# Ion selectivity of TMEM175 recorded on the SURFE2R 96SE. Representative current traces recorded using different cation species on TMEM175 and control samples using the SURFE2R 96SE. […]
compound,measurement,setting,value
"Nc1ccncc1 [4-AP, 4-aminopyridine]",Block of H+ influx current,"TMEM175 [1]; ΔpH 3.0, pH 7.6 to 4.6",full block
same,Effect on H+ efflux currents,TMEM175 [1]; potency lower than for H+ influx,inhibited
same,"Block of TMEM175 net currents for K+, Rb+ and Cs+",TMEM175 [2],complete blockade
